Legend:
[1] = biological target: T1, PDGFRb (Homo sapiens, UniProt P09619); test: PDGFRb kinase in vitro biochemical assay (alphascreen); settings: tested at about 1 μM; read-out: PDGF RK BETA percent inhibition
T1 construct: The kinase domain of PDGFRβ was assayed in 50 mM Hepes; purchased Invitrogen P3082
Description: (§1) The IC50 values for the inhibition of RTKs were determined in the alphascreen format measuring the inhibition by compound of phosphate transfer to a substrate by the respective enzyme. Briefly, the respective RTK domain purchased as human recombinant protein (cKIT Upstate #14-559, PDGFRb Invitrogen #P3082) were incubated with serial dilutions of compound in the presence of substrate and ATP concentrations within 3 times the Km of the enzyme.
(§2) The kinase domain of cKIT was assayed in 50 mM Hepes, pH=7.5, 5 mM MgCl2, 10 mM MnCl2, 1 mM DTT, 0.1% BSA with 0.06 uM biotinylated peptide substrate (GGLFDDPSYVNVQNL-NH2) and 15 uM ATP (ATP KM apparent=15 uM). The kinase domain of PDGFRβ was assayed in 50 mM Hepes, pH=7.5, 20 mM MgCl2, 1 mM DTT, 0.1% BSA with 0.1 uM biotinylated peptide substrate (GGLFDDPSYVNVQNL-NH2) and 10 uM ATP (ATP KM apparent=25 uM). Reactions were incubated at room temperature for 3 to 4 hr and stopped with buffer (20 mM EDTA, 0.01% Tween-20 for both PDGFRb and cKIT). Alphascreen PY20 beads were added to the stopped cKIT reactions and PY20 Ab/Protein A Alphascreen beads were added to the PDGFRβ stopped reactions. Both reactions were incubated overnight and read on the Alphascreen reader. The concentration of compound for 50% inhibition (IC50) was calculated employing non-linear regression using XL-Fit data analysis software. As a control compound, staurosporine is run in every assay and a Z′>0.5 is required to validate results.

[2] = biological target: T2, cKIT (Homo sapiens, UniProt P10721); test: cKIT kinase in vitro biochemical assay (alphascreen); settings: tested at about 1 μM; read-out: CKIT percent inhibition
T2 construct: The kinase domain of cKIT was assayed in 50 mM Hepes; purchased Upstate 14-559
T2 sequence (P10721 589-937 limits assumed): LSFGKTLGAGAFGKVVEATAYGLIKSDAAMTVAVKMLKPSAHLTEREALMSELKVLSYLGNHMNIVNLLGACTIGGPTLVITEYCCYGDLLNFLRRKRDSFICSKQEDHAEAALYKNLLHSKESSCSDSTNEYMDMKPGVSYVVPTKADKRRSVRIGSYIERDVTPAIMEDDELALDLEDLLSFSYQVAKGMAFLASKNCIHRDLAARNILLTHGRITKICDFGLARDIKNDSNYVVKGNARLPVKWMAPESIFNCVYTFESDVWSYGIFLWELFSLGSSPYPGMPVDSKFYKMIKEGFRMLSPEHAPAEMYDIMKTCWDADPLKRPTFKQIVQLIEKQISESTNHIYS
Description: as §1, §2

[3] = system: MNFS60 (murine AML cells); test: Cell viability assay in MCSF dependent MNFS60 cells (Cell Titer Glo); format: cell-based; settings: Mus musculus; tested at about 1 μM; MCSF 10 ng/mL, 72 hrs; read-out: CPEC50 MNFS60MCSF percent inhibition
Description: Cell viability was assessed by Cell Titer Glo, Promega. MNFS60 (murine AML cells) were seeded in TC treated 96-well plates at a density of 5,000 cells per well in RPMI-1640, 10% FBS, and 1% Penicillin Streptomycin prior to addition of compound. Test compounds were serially diluted (3 fold) in DMSO to 500× the final concentration. For each concentration of test compound, 2 μl (500×) aliquots of compound or 100% DMSO (control) were diluted in 500 μl of culture medium that contained 2× final concentration of growth factor MCSF for 2× concentration and then diluted 1× on the cells. Final concentration of MCSF is 10 ng/mL. Cells were incubated for 72 hrs at 37° C., 5% CO2. After the incubation 100 μl Cell Titer Glo is added to each well to determine viable cells. The assay was performed according to the manufacturer's instruction (Promega Corporation, Madison, Wis. USA). Each experimental condition was performed in triplicate. Raw data was imported in Abase and EC50s calculated with XL-fit data analysis software: Relative light units of wells that contained cells without MCSF in the media and as a consequence didn't grow were defined as 100% inhibited.

[4] = biological target: T3, cytoplasmic domain of the human CSF-1R (Homo sapiens, UniProt P07333); test: In vitro kinase assay for CSF-1R (AlphaScreen); format: biochemical; settings: tested at about 1 μM; read-out: CSF1RK 1 percent inhibition
T3 construct: Recombinant protein corresponding to the cytoplasmic domain of the human CSF-1R; purchased Invitrogen Corporation, Carlsbad, Calif; PV3249
T3 sequence (P07333 539-972 limits assumed): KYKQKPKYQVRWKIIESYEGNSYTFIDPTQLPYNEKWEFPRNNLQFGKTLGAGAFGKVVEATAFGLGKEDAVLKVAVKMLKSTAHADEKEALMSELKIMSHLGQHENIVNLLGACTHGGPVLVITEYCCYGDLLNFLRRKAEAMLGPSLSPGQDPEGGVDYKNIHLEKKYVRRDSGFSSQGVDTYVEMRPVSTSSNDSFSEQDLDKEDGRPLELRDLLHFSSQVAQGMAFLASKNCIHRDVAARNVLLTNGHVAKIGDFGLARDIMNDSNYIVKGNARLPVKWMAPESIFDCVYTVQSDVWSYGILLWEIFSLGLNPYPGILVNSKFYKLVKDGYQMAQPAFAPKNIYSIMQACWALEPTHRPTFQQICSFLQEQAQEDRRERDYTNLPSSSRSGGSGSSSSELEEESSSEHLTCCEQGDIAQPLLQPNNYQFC
Description: The kinase activity of various protein tyrosine kinases can be measured by providing ATP and a suitable peptide or protein tyrosine-containing substrate, and assaying the transfer of phosphate moiety to the tyrosine residue. Recombinant protein corresponding to the cytoplasmic domain of the human CSF-1R was purchased from Invitrogen Corporation, Carlsbad, Calif. U.S.A. (#PV3249). For each assay, test compounds were serially diluted, starting at 25 μM with 3 fold dilutions, in DMSO in 384 well plates then mixed with an appropriate kinase reaction buffer consisting of 50 mM Hepes, 5 mM MgCl2, 10 mM MnCl2, 0.1% BSA, pH 7.5, 1.0 mM dithiothreitol, 0.01% Tween 80 plus 1 μM ATP. Kinase protein and an appropriate biotinylated peptide substrate at 50 nM were added to give a final volume of 20 μL, reactions were incubated for 2 hours at room temperature and stopped by the addition of 10 μL of 45 mM EDTA, 50 mM Hepes pH 7.5. Added to the stopped reaction mix was 30 μL of PT66 Alphascreen beads (Perkin Elmer, Boston, Mass., U.S.A.). The reaction was incubated overnight and read on the Envision (Perkin Elmer). Phosphorylated peptide product was measured with the AlphaScreen system (Perkin Elmer) using acceptor beads coated with anti-phosphotyrosine antibody PT66 and donor beads coated with streptavidin that emit a fluorescent signal at the 520-620 nm emission wave length if in close proximity. The concentration of each compound for 50% inhibition (IC50) was calculated by non-linear regression using XL Fit data analysis software.
CSF-1R kinase was assayed in 50 mM Hepes pH 7.0, 5 mM MgCl2, 10 mM MnCl2, 1 mM DTT, 1 mg/mL BSA, 1.0 μM ATP, and 0.05 μM biotin-GGGGRPRAATF-NH2 (SEQ ID NO:1) peptide substrate. CSF-1R kinase was added at final concentration of 4 nM.

T1 sequence (P09619 600-962 limits assumed): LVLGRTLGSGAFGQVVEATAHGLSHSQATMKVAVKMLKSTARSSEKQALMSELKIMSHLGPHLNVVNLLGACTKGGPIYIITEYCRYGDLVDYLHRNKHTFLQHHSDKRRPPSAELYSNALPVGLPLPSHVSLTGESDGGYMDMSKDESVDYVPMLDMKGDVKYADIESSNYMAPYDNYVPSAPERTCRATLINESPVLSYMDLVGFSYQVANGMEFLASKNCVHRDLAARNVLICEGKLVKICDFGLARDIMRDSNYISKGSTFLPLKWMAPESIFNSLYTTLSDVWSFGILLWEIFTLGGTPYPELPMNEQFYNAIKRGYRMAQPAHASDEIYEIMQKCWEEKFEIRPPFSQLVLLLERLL

SMILES | inhibition at 1 µM [1] [%] | inhibition at 1 µM [2] [%] | inhibition at 1 µM [3] [%] | inhibition at 1 µM [4] [%]
Clc1ccncc1Oc1ccc2nc(NCC3CCCCC3)sc2c1 [Compound 1, 6-(4-chloropyridin-3-yloxy)-N-(cyclohexylmethyl)benzo[d]thiazol-2-amine] | 34 | 66 | 22 | 100
O[C@@H]1CCCC[C@H]1Nc1nc2ccc(Oc3cncc(-c4cnn(CC(F)F)c4)c3)cc2s1 [Compound 82, (1R,2R)-2-(6-(5-(1-(2,2-difluoroethyl)-1H-pyrazol-4-yl)pyridin-3-yloxy)benzo[d]thiazol-2-ylamino)cyclohexanol] | 0 | 82 |  | 100
O[C@@H]1CCCC[C@H]1Nc1nc2ccc(Oc3cncc(-c4ncco4)c3)cc2s1 [Compound 83, (1R,2R)-2-(6-(5-(oxazol-2-yl)pyridin-3-yloxy)benzo[d]thiazol-2-ylamino) cyclohexanol] | 98 | 86 |  | 100
N#Cc1ccc(Oc2ccc3nc(NCC4CCCCC4)sc3c2)cn1 [Compound 86, 5-(2-(cyclohexylmethylamino)benzo [d]thiazol-6-yloxy) picolinonitrile] | 1 | 19 |  | 39
C[C@H](Nc1nc2ccc(Oc3ccc(C#N)nc3)cc2s1)C1CCCCC1 [Compound 87, (S)-5-(2-(1-cyclohexylethylamino)benzo[d]thiazol-6-yloxy)picolinonitrile] | 0 | 16 |  | 32
N#Cc1ccc(Oc2ccc3nc(N[C@@H]4CCCC[C@H]4O)sc3c2)cn1 [Compound 88, 5-(2-((1R,2R)-2-hydroxycyclohexylamino)benzo[d]thiazol-6-yloxy)picolinonitrile] | 0 | 15 |  | 32
Nc1ccc(Oc2ccc3nc(NCC4CCCCC4)sc3c2)nn1 [Compound 89, 6-(6-aminopyridazin-3-yloxy)-N-(cyclohexylmethyl)benzo[d]thiazol-2-amine] | 9 | 46 |  | 75
Nc1ccc(Oc2ccc3nc(N[C@@H]4CCCC[C@H]4O)sc3c2)nn1 [Compound 90, (1R,2R)-2-(6-(6-aminopyridazin-3-yloxy)benzo[d]thiazol-2-ylamino)cyclohexanol] | 87 | 33 |  | 28
Cn1nccc1-c1cncc(Oc2ccc3nc(N[C@@H]4CCCC[C@H]4O)sc3c2)n1 [Compound 91, (1R,2R)-2-(6-(6-(1-methyl-1H-pyrazol-5-yl)pyrazin-2-yloxy)benzo[d]thiazol-2-ylamino) cyclohexanol] | 14 | 21 |  | 95
O[C@@H]1CCCC[C@H]1Nc1nc2ccc(Oc3cnc(Cl)c(Br)c3)cc2s1 [Compound 99, (1R,2R)-2-(6-(5-bromo-6-chloropyridin-3-yloxy)benzo[d]thiazol-2-ylamino)cyclohexanol] | 21 | 27 |  | 83
C[C@H](Nc1nc2ccc(Oc3ccc(N)nc3)cc2s1)C1CCCCC1 [Compound 100, (S)-6-(6-aminopyridin-3-yloxy)-N-(1-cyclohexylethyl)benzo[d]thiazol-2-amine] | 31 | 90 |  | 100
Cn1cc(-c2cc(Oc3ccc4nc(N[C@@H]5CCCC[C@H]5O)sc4c3)cnc2Cl)cn1 [Compound 102, (1R,2R)-2-(6-(6-chloro-5-(1-methyl-1H-pyrazol-4-yl)pyridin-3-yloxy)benzo[d]thiazol-2-ylamino)cyclohexanol] | 7 | 11 |  | 86
Nc1ccc(-c2cc(Oc3ccc4nc(N[C@@H]5CCCC[C@H]5O)sc4c3)cnc2Cl)cn1 [Compound 104, (1R,2R)-2-(6-(6′-amino-2-chloro-3,3′-bipyridin-5-yloxy)benzo[d]thiazol-2-ylamino)cyclohexanol] | 15 | 15 |  | 86
O[C@@H]1CCCC[C@H]1Nc1nc2ccc(Oc3cnc(Cl)c(-c4cccnc4)c3)cc2s1 [Compound 105, (1R,2R)-2-(6-(2-chloro-3,3′-bipyridin-5-yloxy)benzo[d]thiazol-2-ylamino) cyclohexanol] | 9 | 9 |  | 43
Cn1cc(-c2cc(Oc3ccc4nc(N[C@@H]5CCCC[C@H]5O)sc4c3)cnc2-c2cnn(C)c2)cn1 [Compound 106, (1R,2R)-2-(6-(5,6-bis(1-methyl-1H-pyrazol-4-yl)pyridin-3-yloxy)benzo[d]thiazol-2-ylamino) cyclohexanol] | 18 | 13 |  | 81
Nc1ccc(-c2cc(Oc3ccc4nc(N[C@@H]5CCCC[C@H]5O)sc4c3)cnc2-c2ccc(N)nc2)cn1 [Compound 108, (1R,2R)-2-(6-(5,6-bis(6-amino-pyridin-3-yl)pyridin-3-yloxy)benzo[d]thiazol-2-ylamino)cyclohexanol] | 23 | 10 |  | 93
O[C@@H]1CCCC[C@H]1Nc1nc2ccc(Oc3cnc(-c4cccnc4)c(-c4cccnc4)c3)cc2s1 [Compound 109, (1R,2R)-2-(6-(5,6-bis(pyridin-3-yl)pyridin-3-yloxy)benzo[d]thiazol-2-ylamino)cyclohexanol] | 16 | 11 |  | 48

From patent US8293769B2, “CSF-1R inhibitors, compositions, and methods of use” (Novartis AG, priority 2008, dated 2012)
